Test: Solubility in organic solvents
Assay type: physicochemical
Settings: in solvents such as THF, toluene, cyclohexane and dichloromethane

solubility: good solubility
Structure (SMILES): CCCCCCCCc1ccc(CCCCCCCC)c2c1-c1nc-2nc2[nH]c(nc3nc(nc4[nH]c(n1)c1ccncc41)-c1c(CCCCCCCC)ccc(CCCCCCCC)c1-3)c1c(CCCCCCCC)ccc(CCCCCCCC)c21 [1a, 1,4,8,11,15,18-(hexaoctyl)tribenzo-3,4-pyridinoporphyrazine]
